Experimental data reported in a melting point compilation (Tetko et al.; mined from patent text by program, amines drawn as free bases though some values may be those of a salt).

| Compound | melting point [°C] |
| --- | --- |
| Nc1cc(C(=O)c2ccc(F)c(N)c2)ccc1F | 131 to 132 |
| NC(=O)NC1CCCc2sc(Br)cc21 (configuration not stated) | 206 to 210 |
| COc1ccc(C(O)c2ccc3cc(OC)ccc3c2)c(F)c1 (configuration not stated) | 68 to 69 |
| NC(=O)N1CCSC1c1ccccc1OCCN1CCN(c2cccc(F)c2)CC1 (configuration not stated) | 142 to 143 |
| Cc1ccc(N=CN(C)SN(C2CCCCC2)C2CCCCC2)c(C)c1 | 97 to 98 |
| CC1Nc2cccc3c(O)ccc(c23)S1(=O)=O (configuration not stated) | 245 to 246 |
| COc1ccc(CCOS(N)(=O)=O)cc1OC | 106 to 108 |
| COc1cccc([C@H]2O[C@H](CC(=O)NCP(=O)(O)O)C(=O)N(CC(C)(C)C)c3ccc(Cl)cc32)c1OC | 152 to 155 |
| Cc1ccc2c(c1)Sc1cc(C)ccc1O2 | 69 to 70 |
| Nc1ccc2c(c1)COc1cc(Nc3ccc(F)cc3F)ccc1C2=O | 184 to 193 |
| C[C@@H](O)Cn1ncc2ccc(O)c([N+](=O)[O-])c21 | 70 to 74 |
| O=C(NCc1cncc(F)c1)c1ccc(S(=O)(=O)n2cc(-c3ccccc3)c3ccccc32)cc1 | 131 |
| CC(C)(C)OC(=O)Nc1cc(CO)c(I)cc1[N+](=O)[O-] | > 250 |
| N#CC1CN(c2c(F)cc3c(=O)c(C(=O)O)cn(C4CC4)c3c2F)C1 | > 325 |
| CCOc1ccc(C(=O)NCc2ccc3c(c2)C(=O)N(C2CCC(=O)NC2=O)C3=O)nn1 (configuration not stated) | 238 to 240 |
| Cc1cc(-n2ccnc2)c2cccc(OCc3c(Cl)ccc(S(=O)(=O)N4CCC[C@H]4C(=O)N4CCN(c5ccccn5)CC4)c3Cl)c2n1 | 108 |
| OC1CCc2cccc(Nc3cc(-c4ccc(C(F)(F)F)cc4)ncn3)c2C1 (configuration not stated) | 178 to 179 |
| CCCc1nc2c(N)nc3cc(O)ccc3c2n1CC(C)C | > 265 |
| CCCCc1ccc(C(=O)Cc2ccc(Br)cc2)cc1 | 129 to 131 |
| COc1cc(C(C)C)ccc1C1(O)C(=O)c2ccc(N)c(N)c2C1=O (configuration not stated) | 272 to 274 |
| CCCc1c(O)c(C(C)=O)cc2c1N=C(C(=O)OC)CC2=O | 169 to 170 |
| CC(C)(CCl)C(=O)C(Oc1ccc(-c2ccc(Cl)cc2)cc1)n1ccnc1 (configuration not stated) | 97 to 99 |
| COc1cc(OC)c2c(=O)[nH]c(-c3ccc(OCCO)c(-c4ccc(S(C)=O)cc4)n3)nc2c1 (configuration not stated) | 281 to 282 |
| CC=CCn1c(C)c(CCCCC)c2cnnc(OCc3ccc(F)cc3)c21 | 65 to 69 |

| Compound | melting point [°C] |
| --- | --- |
| O=C(O)CCc1ccc2c(c1)oc1ccc(Cl)cc12 | 174 to 178 |
| CN(C)C(=N)Nc1ccccc1-c1cccc(S(C)(=O)=O)c1 | 113 to 114 |
| COc1ccc(CNC(=O)C2=C(C(=O)Nc3cc(OC4CCCC4)c(Cl)cc3F)CCCC2)cc1 | 161 to 162 |
| CCOC(=O)CNc1ccc(OCc2ccccc2)cc1 | 70 |
| O=C(c1ccc(F)cc1)c1c(OCc2ccccc2)c(=O)ccn1CCO | 182 to 183 |
| CCCCCCCCCCCCCCCCCCOc1cc(OCCCOc2ccccc2)cc(C(=O)O)c1 | 79 to 81 |
| CC(Br)C(C)N1C(=O)C2(OCCCO2)c2cc(S(=O)(=O)N3CCCC3)ccc21 (configuration not stated) | 152 to 153 |
| O=S(=O)(c1c(-c2ccc(Cl)cc2)[nH]c(SC(F)(F)F)c1Br)C(F)(F)F | 122 to 125 |
| CC(C)n1cc(-c2nc(C(N)=O)c(N)nc2-c2ccccc2)ccc1=O | 240 to 245 |
| Cc1cn(-c2cc(NC(=O)OC(C)(C)C)cc(C(F)(F)F)c2)cn1 | 186 to 188 |
| c1nnc2cc3c(cc2c1NCC1CCCO1)OCO3 (configuration not stated) | 196 to 198 |
| N#Cc1cc(N)ccc1Oc1ccccc1 | 89 |
| CC(C)(O)c1cc(C#N)ccc1O | 129 to 130 |
| COc1ccc(-n2nc(NC(=O)N(C)C)cc2-c2ccc(OCCO)cc2)cc1 | 167 to 168 |
| O=c1[nH]ncc2[nH]c(-c3ccc(OC(F)F)c(OC4CCC4)c3)c(-c3ccccc3)c12 | 280 to 284 |
| CNC(=O)Nc1snc(S(C)(=O)=O)c1C(N)=O | 227 to 228 |
| Clc1nc(Oc2ccccc2)nc(Oc2ccccc2)n1 | 119 to 121 |
| CC(C)[C@H](NC(=O)N(C)Cc1cscn1)C(=O)N[C@@H](Cc1ccccc1)C[C@H](O)[C@H](Cc1ccccc1)NC(=O)OCc1cccnc1 | 69 to 73 |
| CCn1ncc2c(NN=C(C)C)c(C(N)=O)cnc21 | 217 to 218 |
| Nc1ncnc2c1c(-c1ccc(Oc3ccccc3C=O)cc1)cn2C1CCOC1 (configuration not stated) | 185 to 187 |
| Cn1ccnc1SCC(=O)Nc1ccc(-c2ccccc2)cc1 | 151 to 154 |
| O=CC1c2cccc(Cl)c2C(C=O)c2cccc(Cl)c21 (configuration not stated) | 160 to 172 |
| Cc1ccc(C2(c3ccccc3)OCc3c2cnc(C)c3OCC(=O)O)cc1 (configuration not stated) | 223 |
| Cc1ccc(C2=Cc3cc(C)c(C)cc3C2)cc1 | 227 to 228 |

| Compound | melting point [°C] |
| --- | --- |
| COC(=O)C(C)c1ccc2nc(-c3ccc(Cl)cc3)ccc2c1 (configuration not stated) | 114 to 115 |
| CCCCc1nc2c(N)nc3ccccc3c2n1CCCCCS(C)(=O)=O | 173 to 175 |
| O=Cc1ccc2c(c1)S(=O)c1ccccc1C=C2 (configuration not stated) | 188 to 190 |
| O=c1n(-c2cccc3ccccc23)c(=O)n(CCO)n1CCO | 211 to 212 |
| CCOC(=O)c1cnn(-c2ccc(Oc3ccc(C)cc3O)cc2)c1N | 142 to 144 |
| CS(=O)(=O)c1ccc(Oc2cc3nc(-c4ccccc4)oc3cc2[N+](=O)[O-])cc1 | 123 to 125 |
| Cc1cc(-c2nc(COc3ccc(CCCCn4ccnc4)cc3)co2)sc1Br | 85 to 86 |
| CC(=O)C1CC2=C(CO1)C(=O)c1ccccc1C2=O (configuration not stated) | 135 to 136 |
| N#Cc1ccccc1CCc1n[nH]c2c1c(=O)n(-c1ccccc1)c1ncccc21 | 316 |
| COC(=O)[C@]1(OS(C)(=O)=O)C[C@H](CC(C)C)[C@@H](O)[C@H](OC(=O)c2ccccc2)C1 | 161 to 162 |
| CC1(C)C=C(c2ccccc2O)c2cc(C#N)ccc2O1 | 139 to 140 |
| CCOC1=NS(=O)(=O)C(C#N)=C1N | 228 to 229 |
| COC(=O)c1ccc(CN(C2CCCCC2O)S(=O)(=O)c2ccc(Cl)cc2)c(F)c1F (configuration not stated) | 123 to 125 |
| Oc1ccc(-c2cc3c(Br)c(O)cc(Br)c3o2)cc1 | 215 to 217 |
| CCN(C(=O)C(C)(C)C)c1ccc(F)cc1F | 69 to 71 |
| C=C(C)CNc1cc(Cl)nnc1Cl | 172 to 175 |
| O=C1C(Cl)=C(Nc2ccc(S(=O)(=O)Nc3ccccc3)cc2)C(=O)c2ccccc21 | 220 to 223 |
| CCC(C)(C)OC(=O)NC(C)(Cc1c[nH]c2ccccc12)C(=O)NCCc1cccnc1 (configuration not stated) | 95 to 105 |
| COCCOCc1nc2cnc3ccc(OCc4ccccc4)cc3c2n1C | 128 to 132 |
| BrC(Br)(Br)c1ccc2cc(I)ccc2n1 | 124 to 126 |
| COc1ccc(CNc2cc(F)cc(C#N)c2)cc1 | 93 to 94 |
| COc1cc(Br)ccc1-c1ccc(Br)cc1N | 94.5 to 97 |
| Nc1ccc(-c2ccc(Cl)cc2)cn1 | 122 to 124 |
| COC(=O)C1=C(C)NC(=S)N(C(=O)OC)C1c1cccc([N+](=O)[O-])c1 (configuration not stated) | 172 to 173 |
